From patent US12390440B2, “Immunomodulating trifluoromethyl-aminal azalides” (Zoetis Services LLC, priority 2020, dated 2025)
Converted amounts (≈) assume the structure as drawn. “Also recorded” adds a separate entry of the source.

Tests used:
[1] = test system: M. haemolytica (strain: OSU-012103-BHI); test: Bovine M. haemolytica intratracheal lung challenge model
[2] = test system: bovine alveolar macrophages; test: Phospholipidosis assay (HCS LipidTox); format: cell-based; details: Bos taurus, Macrophage
Source text: The second immunomodulation in vitro assay evaluated the potential for phospholipidosis with the compounds of the invention in bovine alveolar macrophages. The phospholipidosis assay is being used as a convenient method for the evaluation of cellular uptake. This assay utilized Invitrogen's commercially available HCS LipidTox detection kit with an Incucyte real time fluorescence reader to observe variations in EC50 and phospholipidosis profiles based on compound concentrations (Table 2). […] Murine intraperitoneal macrophages were also used in the same assay to evaluate species variability for potential correlation with mouse efficacy results. The combination of the bovine whole blood assay and phospholipidosis assays enabled rank ordering for progression into in vivo testing in the murine challenge model.

[3] = test system: bovine respiratory disease (BRD); test: Natural bovine respiratory disease study; format: in vivo, beef calves; details: 14-day observation, dosed on arrival to feedlot
Method: The primary clinical endpoint for efficacy was treatment failure/success over a 14-day observation period. Clinically normal beef calves (150-200 kg) at moderate risk for BRD were dosed on arrival to the feedlot. Animals (N=114/group) received saline (T01), 5 mg/kg M9 (T02) or 10 mg/kg M9 (T03); or Zactran (T04). […] Bacterial isolates were collected at necropsy and MICs were evaluated (Table 4).

[4] = test system: P. multocida; test: Murine P. multocida intranasal challenge study, survival; format: in vivo; details: 32 mg/kg (T03) subcutaneous 18 hours after challenge, 5×10^3 CFU/mouse
Method: In one murine P. multocida intranasal challenge study, mice were administered tulathromycin (16 mg/kg; T02), M9 (32 mg/kg; T03), or ceftiofur (9 mg/kg; T04) by subcutaneous injection 18 hours after bacterial challenge (5×10^3 CFU/mouse) for lung tissue RNA sequence analysis. Survival at Day 7 was about 80%, 50%, and 90% for T02, T03, and T04, respectively, compared to placebo at 0%. Differential gene expression from total lung tissue RNA sequence analysis indicated at least 226 unique genes were up or down regulated (with significance) for T03. Output from ingenuity pathway analysis of these unique genes predicted major upstream regulators of the involved pathways. Data was analyzed based on the number of genes being modulated in the same direction that were associated with a given upstream regulator. An activation z-score of 2 or greater is considered significant and the direction change is indicated by + (activated) or − (inhibited). The top 5 pathways included: IL-9 signaling, glucocorticoid receptor signaling, prolactin signaling, JAK STAT signaling, and IL-17 signaling. The top 6 upstream regulators (activation z-score) included: lipopolysaccharide (−6.725), TNF (−4.669), IFNγ (−5.759), IL-1ß (−5.947), STAT1 (−2.787), and poly rI:rC-RNA (−5.289). Even though this study was run in the murine model, the top upstream regulators identified as being modulated by M9 include an almost ubiquitous overlap with the pathways identified in the natural disease study as being key mediators in BRD, and therefore is modulating highly relevant pathways in BRD pathobiology.

[5] = test system: IL-6; test: Bovine whole blood assay, IL-6; format: cell-based; details: Bos taurus, fresh whole bovine blood, LPS 1 μg/mL
Method: (§1) (protected from light) for 30 minutes.

[6] = test system: IL-1β; test: Bovine whole blood assay, IL-1β; format: cell-based; details: overstimulation of IL-1β, perceived cellular toxicity concentration;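 also: compound concentration at which rising IL-1β release signals cytotoxicity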
Method: as §1

[7] = test system: H. somni; test: MIC, H. somni
[8] = target: NLRX1 (Bos taurus, UniProt A7MB19); test: Drug/protein binding partner, SPR: NLRX1; set-up: species or system bovine; details: PBMCs
Chain of NLRX1 (A7MB19 1-973): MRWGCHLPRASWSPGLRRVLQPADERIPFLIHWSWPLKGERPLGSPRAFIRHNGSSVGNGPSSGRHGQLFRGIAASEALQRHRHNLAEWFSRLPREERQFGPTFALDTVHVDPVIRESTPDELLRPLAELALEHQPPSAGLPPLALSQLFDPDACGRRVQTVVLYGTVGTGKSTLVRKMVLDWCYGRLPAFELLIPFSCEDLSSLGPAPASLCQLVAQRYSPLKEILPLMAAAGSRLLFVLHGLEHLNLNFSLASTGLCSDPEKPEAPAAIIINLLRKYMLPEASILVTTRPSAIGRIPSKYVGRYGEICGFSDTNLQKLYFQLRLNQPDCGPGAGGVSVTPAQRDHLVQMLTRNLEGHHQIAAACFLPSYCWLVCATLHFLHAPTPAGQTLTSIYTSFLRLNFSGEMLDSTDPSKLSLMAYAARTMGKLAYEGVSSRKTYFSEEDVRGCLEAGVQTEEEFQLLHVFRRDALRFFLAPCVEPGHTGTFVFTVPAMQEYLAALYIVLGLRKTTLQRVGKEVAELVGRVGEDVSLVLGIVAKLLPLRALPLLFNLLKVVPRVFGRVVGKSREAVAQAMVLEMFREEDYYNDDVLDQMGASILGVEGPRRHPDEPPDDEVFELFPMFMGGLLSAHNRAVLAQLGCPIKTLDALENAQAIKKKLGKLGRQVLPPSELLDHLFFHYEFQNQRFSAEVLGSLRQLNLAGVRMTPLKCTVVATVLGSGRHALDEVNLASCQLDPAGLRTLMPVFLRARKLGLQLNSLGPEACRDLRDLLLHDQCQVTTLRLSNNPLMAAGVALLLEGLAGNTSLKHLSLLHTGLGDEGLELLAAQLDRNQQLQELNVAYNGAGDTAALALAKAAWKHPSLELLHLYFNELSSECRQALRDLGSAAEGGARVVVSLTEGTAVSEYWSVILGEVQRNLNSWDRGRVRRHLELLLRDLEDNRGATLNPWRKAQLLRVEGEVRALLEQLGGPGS
Method: To further characterize the direct activity of the compounds of the invention, experiments to identify the drug's direct binding host partners(s) were performed with the aim of identifying the potential biological targets. Bovine primary cells (peripheral blood mononuclear cells [PBMCs] and polymorphonuclear cells [PMN/neutrophils]) and tissue (trachea, lung) protein homogenates were mixed with M9 and the macrolide, gamithromicin as a comparator. Tissue interactions were allowed to form using a heterogeneous assembly method (nematic protein organization technique, NPOT; Inoviem Scientific); and traditional western blots to identify native-structure proteins bound to the compound. Mass spectrometry analysis identified eight proteins involved in the interaction with M9 as compared to gamithromycin. The antibacterial macrolide gamithromycin was used as a comparator to differentiate specific binding to M9. These proteins were considered to be either direct binding partners of the drug or closely involved in the drug:target interaction (Table 6).
In order to add further clarity to binding partner identification, surface plasma resonance (SPR) technology was used. […]
KD is the equilibrium dissociation constant that was used to present the drug/target affinity. The identified targets associated with drug were measured by surface plasmon resonance (SPR) to define the KD.

CCCNC[C@]1(O)[C@H](C)O[C@@H](O[C@H]2[C@H](C)[C@@H](O[C@@H]3O[C@H](C)C[C@H](NC)[C@H]3O)[C@](C)(O)C[C@@H](C)CN[C@H](C)[C@@H](O)[C@](C)(O)[C@@H](CC)OC(=O)[C@@H]2C)C[C@@]1(C)OC [Example M9, (2R,3S,4R,5R,8R,10R,11R,12S,13S,14R)-2-ethyl-3,4,10-trihydroxy-13-(((2R,4R,5S,6S)-5-hydroxy-4-methoxy-4,6-dimethyl-5-((propylamino)methyl)-tetrahydro-2H-pyran-2-yl)oxy)-11-(((2S,3R,4S,6R)-3-hydroxy-6-methyl-4-(methylamino)tetrahydro-2H-pyran-2-yl)oxy)-3,5,8,10,12,14-hexamethyl-1-oxa-6-azacyclopentadecan-15-one]
Mortality ([1]; T02: 10 mg/kg subcutaneous Day −1, M. haemolytica challenge Day 0): 1/6
Mortality ([1]; T04: 10 mg/kg subcutaneous Day −1, no challenge): 0/6
IL-6 levels ([1]; bovine M. haemolytica challenge): significantly reduced
CD163 expression ([1]; cattle, monocytes/macrophages in whole blood): suppressed; also recorded: mitigates the pathologic increase
EC50 [2]: 53.7 µM
Percent failure ([3]; 5 mg/kg (T02)): 19.3%
Percent failure ([3]; 10 mg/kg (T03)): 8.8%
Survival at Day 7 [4]: ~50%
IC50 [5]: > 250 µM
IL-1β OS of LPS [6]: > 500 µM
MIC50 [7]: 32 µg/mL (≈ 40.4 µM)
MIC90 [7]: 32 µg/mL (≈ 40.4 µM)
Interaction KD [8]: Indirect
